# Reference: US20120149700A1, “2-CYANOPHENYL FUSED HETEROCYCLIC COMPOUNDS, AND COMPOSTIONS AND USES THEREOF” (priority 2007, published 2012)
# Legend:
# P2X3 = target: T1, P2X3 (Homo sapiens, UniProt P56373); experiment: Calcium uptake assay (P2X antagonist assay, inhibition of agonist-induced calcium influx), P2X3; type: cell-based; conditions: inhibition of agonist-induced calcium influx in cells expressing the receptor
# T1 construct: expressed in transfected cells; host or cells: e.g. HEK293 or 1321N1
# T1 sequence (P56373 1-397): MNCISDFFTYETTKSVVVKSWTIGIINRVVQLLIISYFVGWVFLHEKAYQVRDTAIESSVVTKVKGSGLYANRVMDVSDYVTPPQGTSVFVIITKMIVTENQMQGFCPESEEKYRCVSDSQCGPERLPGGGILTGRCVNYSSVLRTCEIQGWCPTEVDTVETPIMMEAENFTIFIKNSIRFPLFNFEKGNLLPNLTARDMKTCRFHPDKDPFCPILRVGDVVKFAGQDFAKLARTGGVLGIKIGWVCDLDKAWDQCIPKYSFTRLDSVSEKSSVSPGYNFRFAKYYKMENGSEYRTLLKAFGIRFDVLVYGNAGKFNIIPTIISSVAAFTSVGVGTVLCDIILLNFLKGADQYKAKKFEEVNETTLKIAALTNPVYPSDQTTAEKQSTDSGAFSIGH
# Description: (§1) The human P2X2/3 chimera clone is created as described by Neelands et al, and then cloned into an expression vector as above. Receptors are expressed in cells (e.g., HEK293 or 1321N1 (obtained from the ECACC)) via transient transfection using standard lipid mediated transfection, or by creation of stable transfectants for each receptor. For expression of the P2X2/3 heteromeric receptor, the P2X3 expression vector is stably transfected into a cell line already stably expressing P2X2. P2X2/3 heteromer function is isolated using pharmacological methods. Cell lines are maintained in DMEM+5% Glutamax, the appropriate level of selective antibiotic, and 10% heat inactivated FBS.
# (§2) Functional activity of compounds at the P2X receptor is determined by measuring their ability to inhibit agonist-induced calcium influx. Compounds are tested for antagonist activity against the P2X2/3 chimera, the P2X3 homomer, or the P2X2/3 heteromer. At the start of each screening day, the agonist EC50 is determined. Compound % inhibition or IC50s are subsequently determined using a pre-determined agonist concentration (EC50-90 depending on cell line) as a stimulus. The agonists used are αβMeATP, ATP, or other ATP analogs. Compounds may be tested at concentrations ranging from 1 pM to 10 μM.
# (§3) To test for antagonist activity, cells expressing the appropriate receptor are seeded onto 96 or 384 well plates 18-24 hours prior to assay. […] Plates are incubated at 37° C. and then equilibrated at room temperature. Antagonism of agonist-induced calcium influx is measured using a fluorescent imaging plate reader (e.g. FLIPR^TETRA, Molecular Devices, Sunnyvale, Calif.). The assay comprises two stages: a pre-treatment phase followed by a treatment phase. Compounds may be tested as follows: For the pre-treatment phase, 50 μL of 3× concentration of test compound in HBSS is added to cells containing 100 μL of dye loading media to achieve a final concentration of 1× test compound. For the treatment phase, at a set interval after pre-treatment (1-30 minutes), 50 μl, of 1× test compound plus 4× agonist solution is added, resulting in a final concentration of 1× compound and 1× agonist. […] Responses are measured as (peak fluorescence after agonist addition) minus (baseline fluorescence prior to treatment). Percent inhibition is calculated as follows: […]
# (§4) IC50 values are determined by analyzing dose response data in a 4 parameter logistic fit using GraphPad Prizm.
# P2X2/3 = target: T2, P2X2/3 (Homo sapiens, UniProt P56373+Q9UBL9); experiment: Calcium uptake assay (P2X antagonist assay, inhibition of agonist-induced calcium influx), P2X2/3; type: cell-based; conditions: inhibition of agonist-induced calcium influx in cells expressing the receptor
# T2 construct: expressed in transfected cells; host or cells: cell line stably expressing P2X2, stably transfected with P2X3 (e.g. HEK293 or 1321N1)
# T2 sequence (Q9UBL9 1-471): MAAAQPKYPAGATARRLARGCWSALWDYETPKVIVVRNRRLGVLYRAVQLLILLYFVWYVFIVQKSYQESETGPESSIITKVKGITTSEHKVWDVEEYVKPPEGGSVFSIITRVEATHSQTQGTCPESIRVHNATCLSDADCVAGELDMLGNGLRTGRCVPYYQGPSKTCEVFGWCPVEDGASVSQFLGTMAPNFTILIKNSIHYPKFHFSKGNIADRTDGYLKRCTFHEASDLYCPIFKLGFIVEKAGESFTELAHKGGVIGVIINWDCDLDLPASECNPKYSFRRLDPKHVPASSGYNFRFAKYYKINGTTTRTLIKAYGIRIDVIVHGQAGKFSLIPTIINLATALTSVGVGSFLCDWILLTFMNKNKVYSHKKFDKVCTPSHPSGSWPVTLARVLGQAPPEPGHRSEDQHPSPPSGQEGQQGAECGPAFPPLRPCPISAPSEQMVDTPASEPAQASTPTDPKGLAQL
# T2 sequence (P56373 1-397): T1 sequence (P56373 1-397)
# Description: as §1, §2, §3, §4
Compound,IC50 (P2X3) [nM],IC50 (P2X2/3) [nM]
"Cc1ccc(N2CCc3ncnc(NCc4ccc(C5CC5)cn4)c3C2)c(C#N)c1 [Compound 30, 2-{4-[(5-Cyclopropyl-pyridin-2-ylmethyl)-amino]-7,8-dihydro-5H-pyrido[4,3-d]pyrimidin-6-yl}-5-methyl-benzonitrile]",236,377
"Cc1ccc(N2CCc3ncnc(NCc4ncc(Cl)cc4Cl)c3C2)c(C#N)c1 [Compound 32, 2-{-4-[(3,5-Dichloro-pyridin-2-ylmethyl)-amino]-7,8-dihydro-5H-pyrido[4,3-d]pyrimidin-6-yl}-5-methyl-benzonitrile]",41,50
"COc1ccc([C@@H](CCO)Nc2ncnc3c2CN(c2ccc(Cl)cc2C#N)CC3)cn1 [Compound 34, 5-Chloro-2-{4-[(R)-3-hydroxy-1-(6-methoxy-pyridin-3-yl)-propylamino]-7,8-dihydro-5H-pyrido[4,3-d]pyrimidin-6-yl}-benzonitrile]",33,105
"COc1ccc([C@@H](CO)Nc2ncnc3c2CN(c2ccc(Cl)cc2C#N)CC3)cn1 [Compound 35, 5-Chloro-2-{4-[(S)-2-hydroxy-1-(6-methoxy-pyridin-3-yl)-ethylamino]-7,8-dihydro-5H-pyrido[4,3-d]pyrimidin-6-yl}-benzonitrile]",23,200
"N#Cc1cc(Cl)ccc1N1CCc2ncnc(NCc3ccn4ccnc4c3)c2C1 [Compound 44, 5-Chloro-2-{4-[(imidazo[1,2-a]pyridin-7-ylmethyl)-amino]-7,8-dihydro-5H-pyrido[4,3-d]pyrimidin-6-yl}-benzonitrile]",122,753
"Cc1ccc(N2CCc3ncnc(N[C@H](CO)c4ccc(C(F)(F)F)nc4)c3C2)c(C#N)c1 [Compound 46, 2-{4-[(S)-2-Hydroxy-1-(6-trifluoromethyl-pyridin-3-yl)-ethylamino]-7,8-dihydro-5H-pyrido[4,3-d]pyrimidin-6-yl}-5-methyl-benzonitrile]",21,71
"N#Cc1cc(Cl)ccc1N1CCc2ncnc(N[C@H](CO)c3ccc(C(F)(F)F)nc3)c2C1 [Compound 47, 5-Chloro-2-{4-[(S)-2-hydroxy-1-(6-trifluoromethyl-pyridin-3-yl)-ethylamino]-7,8-dihydro-5H-pyrido[4,3-d]pyrimidin-6-yl}-benzonitrile]",54,671
"N#Cc1cc(Cl)ccc1N1CCc2ncnc(NCc3cccc(-n4cnnc4)c3)c2C1 [Compound 51, 5-Chloro-2-[4-(3-[1,2,4]triazol-4-yl-benzylamino)-7,8-dihydro-5H-pyrido[4,3-d]pyrimidin-6-yl]-benzonitrile]",284,1020
"N#Cc1cc(Cl)ccc1N1CCc2ncnc(NCc3ccc(Cl)c(-n4cnnc4)c3)c2C1 [Compound 52, 5-Chloro-2-[4-(4-chloro-3-[1,2,4]triazol-4-yl-benzylamino)-7,8-dihydro-5H-pyrido[4,3-d]pyrimidin-6-yl]-benzonitrile]",41,286
"N#Cc1cc(Cl)ccc1N1CCc2ncnc(N[C@H](CCO)c3ccc(C(F)F)nc3)c2C1 [Compound 62, 5-Chloro-2-{4-[(R)-1-(6-difluoromethyl-pyridin-3-yl)-3-hydroxy-propylamino]-7,8-dihydro-5H-pyrido[4,3-d]pyrimidin-6-yl}-benzonitrile]",32,273
"Cc1ccc(N2CCc3ncnc(NCc4ccc(C)c(N5CCOCC5)c4)c3C2)c(C#N)c1 [Compound 63, 5-Methyl-2-[4-(4-methyl-3-morpholin-4-yl-benzylamino)-7,8-dihydro-5H-pyrido[4,3-d]pyrimidin-6-yl]-benzonitrile]",96,1120

# Now from value to compound:
IC50 (P2X3) [nM],IC50 (P2X2/3) [nM],Compound
38,127,"CCc1ccc(CNc2ncnc3c2CN(c2ccc(C)cc2C#N)CC3)cn1 [Compound 33, 2-{4-[(6-Ethyl-pyridin-3-ylmethyl)-amino]-7,8-dihydro-5H-pyrido[4,3-d]pyrimidin-6-yl}-5-methyl-benzonitrile]"
183,1090,"Cc1ccc(N2CCc3ncnc(NCc4cccc(C#N)c4)c3C2)c(C#N)c1 [Compound 36, 2-[4-(3-Cyano-benzylamino)-7,8-dihydro-5H-pyrido[4,3-d]pyrimidin-6-yl]-5-methyl-benzonitrile]"
15,45,"Cc1ccc(N2CCc3ncnc(NCc4ccc5ocnc5c4)c3C2)c(C#N)c1 [Compound 38, 2-{4-[(Benzooxazol-5-ylmethyl)-amino]-7,8-dihydro-5H-pyrido[4,3-d]pyrimidin-6-yl}-5-methyl-benzonitrile]"
21,92,"Cc1ccc(N2CCc3ncnc(NCc4ccc(C)c(-n5cncn5)c4)c3C2)c(C#N)c1 [Compound 40, 5-Methyl-2-{4-(4-methyl-3-[1,2,4]triazol-1-yl-benzylamino)-7,8-dihydro-5H-pyrido[4,3-d]pyrimidin-6-yl}-benzonitrile]"
89,124,"Cc1ccc(N2CCc3ncnc(NCc4ccc(C)c(F)c4)c3C2)c(C#N)c1 [Compound 48, 2-[4-(3-Fluoro-4-methyl-benzylamino)-7,8-dihydro-5H-pyrido[4,3-d]pyrimidin-6-yl]-5-methyl-benzonitrile]"
474,925,"CSc1cc(CNc2ncnc3c2CN(c2ccc(C)cc2C#N)CC3)ccc1C [Compound 49, 5-Methyl-2-[4-(4-methyl-3-methylsulfanyl-benzylamino)-7,8-dihydro-5H-pyrido[4,3-d]pyrimidin-6-yl]-benzonitrile]"
31,63,"Cc1ccc(N2CCc3ncnc(NCc4ccc(Cl)c(-n5cnnc5)c4)c3C2)c(C#N)c1 [Compound 50, 2-[4-(4-Chloro-3-[1,2,4]triazol-4-yl-benzylamino)-7,8-dihydro-5H-pyrido[4,3-d]pyrimidin-6-yl]-5-methyl-benzonitrile]"
65,324,"Cc1ccc(N2CCc3ncnc(NCc4cccc(-n5cnnc5)c4)c3C2)c(C#N)c1 [Compound 53, 5-Methyl-2-[4-(3-[1,2,4]triazol-4-yl-benzylamino)-7,8-dihydro-5H-pyrido[4,3-d]pyrimidin-6-yl]-benzonitrile]"
512,1300,"Cc1ccc(N2CCc3ncnc(NCc4ccc(C)c(I)c4)c3C2)c(C#N)c1 [Compound 55, 2-[4-(3-Iodo-4-methyl-benzylamino)-7,8-dihydro-5H-pyrido[4,3-d]pyrimidin-6-yl]-5-methyl-benzonitrile]"
63,82,Cc1ccc(N2CCc3ncnc(NCc4ccc(C)c(C#N)c4)c3C2)c(C#N)c1 [Compound 56]
16,55,"Cc1ccc(N2CCc3ncnc(NCc4ccc(C)c(S(C)(=O)=O)c4)c3C2)c(C#N)c1 [Compound 59, 2-{4-(3-Methanesulfonyl-4-methyl-benzylamino)-7,8-dihydro-5H-pyrido[4,3-d]pyrimidin-6-yl}-5-methyl-benzonitrile]"
